# How the values were obtained:
# [1] = tested on: Echovirus 1 (EV1); type: cell-based, Farouk strain
# [2] = tested on: Coxsackie virus A9 (CVA9); experiment: CVA9 infection of A549 cells, cell viability (CTG assay / crystal violet); type: cell-based, Griggs strain; conditions: 18 h post infection
# Procedure: (§1) FIG. 1. […] A549 cells were treated for 1 h with different concentrations of vemurafenib before Echovirus 1 (EV1), Coxsackie virus B3 (CVB3) or Coxsackie virus A9 (CVA9) infection, and vemurafenib was present after addition of viruses. Further, non-infected control cells were included. After 18 h post infection, the cell viability was determined by cell viability Glo-titer assay according to the instructions by the manufacturer (CTG assay, which measures cellular ATP levels, Promega; left figure) or crystal violet staining as described before (right figure; Martikainen et al., 2015). Values are means±SD.
# (§2) Adenocarcinoma human alveolar basal epithelial (A549, ATCC) cells were cultured in Dulbecco's modified eagle medium (DMEM; Gibco) supplemented with 10% fetal bovine serum (FBS; Gibco), 1% Glutamax (Gibco) and 1% penicillin and streptomycin antibiotics (Gibco) for 24 h. […] In addition, non-infected control cells were included. After 18 h post infection (p.i.), the cell viability was determined by cell titer-Glo assay according to the instructions by the manufacturer (CTG assay, which measures cellular ATP levels, Promega; left figure) or crystal violet staining as described before (right figure; Martikainen et al. 2015). Values are means±SD.
# [3] = tested on: Coxsackie virus B3 (CVB3); experiment: CVB3 infection of A549 cells, cell viability (CTG assay / crystal violet); type: cell-based, Nancy strain; conditions: 18 h post infection
# Procedure: as §1, §2
# [4] = tested on: Coxsackie virus B (CVB) serotypes (1-6); experiment: CVB serotypes 1-6 infection of A549 cells, crystal violet viability; type: cell-based; conditions: 18 h of infection, dose dependent
# Procedure: FIG. 2. […] Different concentrations of vemurafenib were tested against different Coxsackie virus B (CVB) serotypes (1-6) by treating A549 cells with the drug for 1 h and then infecting the cells with the viruses. Cell viability was determined after 18 h of infection using crystal violet staining. The results were normalized to control sample with no virus infection and 0 μM concentration of vemurafenib (CTRL). The values are means±SD.
# Finally, the cell viability was determined using crystal violet staining. The results were normalized to control sample with no virus infection and 0 μM concentration of vemurafenib (CTRL). The values are means±SD.
# [5] = tested on: CVB4 E2 diabetogenic strain; experiment: CVB4 infection of Min-6 pancreatic beta cells, crystal violet viability; type: cell-based; conditions: mouse pancreatic beta cell line Min-6, 0.25-7.5 μM, MOI of 1, crystal violet
# [6] = tested on: Poliovirus 3; type: cell-based, polio-3 (vaccine strain); conditions: A549 cells, 2 days of infection, Cell Titer Glo
# [7] = tested on: CV-B4 E2; experiment: CVB4 infection in mice, infectious viral titer in heart and pancreas; type: in vivo, Hsd:ICR(CD-1) female mice; conditions: 10 mg/kg intraperitoneally once a day for 5 days, sacrificed on day 6
# [8] = tested on: EV1-infected A549 cells; type: cell-based, human
# [9] = tested on: CVB4; experiment: Persistent CVB4 infection of Panc-1 cells, viral titers and viral RNA; type: cell-based; conditions: 7.5 μM each 2 to 3 days
# [10] = tested on: human parechovirus 1 (HPEV1); type: cell-based; conditions: A549 cells, 5 μM, 6 h
# [11] = tested on: semliki forest virus (SFV); type: cell-based; conditions: Hela cells, 5 or 10 μM, 6 h
# [12] = tested on: vesicular stomatitis virus (VSV); type: cell-based
# [13] = tested on: respiratory syncytial virus (RSV); type: cell-based; conditions: Hela cells, 5 or 10 μM, 20 h
# [14] = tested on: EV1; experiment: Time of addition assay, EV1 infection of A549 cells, VP1 labeling; type: cell-based; conditions: EV1, 5 μM, infection followed until 6 h p.i.
# [15] = tested on: EV1; experiment: EV1 replication in A549 cells by dsRNA (J2) labeling; type: cell-based; conditions: 5 μM, 3, 4 or 6 h p.i.
# [16] = tested on: EV1 IRES; type: cell-based, EV1 Farouk strain; conditions: Hela cells, 5 μM, 24 h
# [17] = tested on: HPEV1 IRES; type: cell-based, HPEV1 strain 22 Harris; conditions: Hela cells, 5 μM, 24 h
# [18] = molecular target: viral protease 2A (Coxsackievirus B3, UniProt P03313); experiment: Viral protease 2A action on PABP in Hela cell homogenate, western blotting; type: biochemical; conditions: 5, 10 or 20 μM, RT for 18 h
# Procedure: (§3) FIG. 18. […] The results were detected by western blotting and known cellular targets for 2A and 3C, poly A binding protein (PABP) and stress granule assembly factor 1 (G3BP1) respectively, were immunolabeled. The results are representative of two separate experiments.
# (§4) The reaction was carried out in buffer containing 20 mM HEPES (pH 7.4), 0.12 M KCH3COO, 4 mM Mg(CH3COO)2 and 5 mM DTT with or without vemurafenib (5, 10 or 20 μM) being present. The reactions were carried out at RT for 18 h, after which they were terminated by adding Laemmli sample buffer and heating at 100° C. for 9 min. The samples were run in 4-20% Miniprotean TGX stain free gel (Biorad). The gel was UV-activated for 5 min with Chemidoc MP (Biorad) to reveal the total protein amount, after which the proteins were transferred to PVDF membrane (Immobilon-P, Merck Millipore). Next, the blot was blocked o/n with 5% BSA in 0.05% tween in TBS. Poly A binding protein (PABP) was detected using 1:100 dilution of mouse anti-PABP (Santa Cruz). Stress granule assembly factor 1 G3BP1 was detected using 1:1000 dilution of mouse anti-G3BP1 (Santa Cruz).
# [19] = molecular target: viral protease 3C (Coxsackievirus B3, UniProt P03313); experiment: Viral protease 3C action on G3BP1 in Hela cell homogenate, western blotting; type: biochemical; conditions: 5, 10 or 20 μM, RT for 18 h
# Procedure: as §3, §4
# [20] = molecular target: 3D polymerase of CVB3 (Coxsackievirus B3, UniProt P03313); experiment: RNA elongation assay with viral 3D polymerase; type: biochemical; conditions: various inhibitor concentrations, RT
# Procedure: FIG. 19. […] An RNA elongation assay was used to study the effect of vemurafenib on viral 3D polymerase. […] At 15 min, GTP and ATP were added along with RNA2 (SEQ ID NO:2) allowing 3D+RNA1 complexes to incorporate ATP and GTP (forming +2 product) as well as initiate and incorporate GTP and RNA2 (forming +1 product). After 10 min, each reaction was “chased” to fully elongated product by adding the remaining NTPs.
# An RNA elongation assay was used to study the effect of vemurafenib on viral 3D polymerase. […] At 15 min, GTP and ATP were added along with RNA2 (SEQ ID NO: 2) allowing 3D+RNA1 complexes to incorporate ATP and GTP (forming +2 product) as well as initiate and incorporate GTP and RNA2 (forming +1 product). After 10 min, each reaction was “chased” to fully elongated product by adding the remaining NTPs.
# [21] = tested on: influenza A(H1N1)pdm09; conditions: reported by McKimm-Breschkin et al.; cited from earlier work
# [22] = tested on: adenovirus 5; experiment: Adenovirus 5 GFP transduction of A549 cells; conditions: 5 μM, 17 h
# [23] = tested on: human rhinovirus B14 (HRVB14); experiment: HRVB14 replication in Hela cells by dsRNA (J2) labeling; conditions: 5 μM, 6 h at +34° C.
# [24] = tested on: EV1 RNA; experiment: Transfection of EV1 genomic RNA into A549 cells, VP1 labeling; conditions: 5 μM, 6 h
# [25] = tested on: EV1 particle; experiment: Real-time spectroscopic assay of EV1 particle opening (Sybr green II); conditions: 5 μM, 3 h at +37° C.
# [26] = tested on: EV1; experiment: Uncoating of radioactively labeled EV1 in endosomes of A549 cells, sucrose gradients; conditions: 5 μM, 4 h p.i.
# [27] = 1 h pre-treatment, dose dependent
# Chain of viral protease 2A (P03313 852-1001): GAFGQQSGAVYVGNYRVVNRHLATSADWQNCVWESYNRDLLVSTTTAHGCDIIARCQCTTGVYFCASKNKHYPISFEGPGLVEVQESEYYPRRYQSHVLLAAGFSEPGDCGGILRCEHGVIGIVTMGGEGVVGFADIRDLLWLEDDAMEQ
# Chain of 3D polymerase of CVB3 (P03313 1724-2185): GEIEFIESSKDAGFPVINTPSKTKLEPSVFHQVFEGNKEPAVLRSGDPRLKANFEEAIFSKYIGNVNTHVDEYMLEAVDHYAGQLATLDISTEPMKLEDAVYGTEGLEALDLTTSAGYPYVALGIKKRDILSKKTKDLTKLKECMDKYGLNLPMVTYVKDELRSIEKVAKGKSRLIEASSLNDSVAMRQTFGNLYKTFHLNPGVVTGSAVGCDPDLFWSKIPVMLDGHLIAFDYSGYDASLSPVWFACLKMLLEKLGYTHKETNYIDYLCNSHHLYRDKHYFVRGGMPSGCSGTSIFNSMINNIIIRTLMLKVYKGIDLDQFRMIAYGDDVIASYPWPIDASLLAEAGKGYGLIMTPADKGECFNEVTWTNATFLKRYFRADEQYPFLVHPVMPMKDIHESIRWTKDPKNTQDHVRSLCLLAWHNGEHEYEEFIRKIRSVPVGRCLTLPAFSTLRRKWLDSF
# Chain of viral protease 3C (P03313 1541-1723): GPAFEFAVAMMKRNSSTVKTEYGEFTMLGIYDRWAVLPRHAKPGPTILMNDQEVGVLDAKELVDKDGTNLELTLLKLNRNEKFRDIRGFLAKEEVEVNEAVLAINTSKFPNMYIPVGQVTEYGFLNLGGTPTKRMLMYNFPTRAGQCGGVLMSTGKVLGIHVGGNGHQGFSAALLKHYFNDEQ
compound,measurement,setting,value
"CCCS(=O)(=O)Nc1ccc(F)c(C(=O)c2c[nH]c3ncc(-c4ccc(Cl)cc4)cc23)c1F [vemurafenib, N-(3-(5-(4-chlorophenyl)-1H-pyrrolo[2,3-b]pyridine-3-carbonyl)-2,4-difluorophenyl)propane-1-sulfonamide]",effect on EV1 infection (cell viability),[1],prevents the infection
same,effect on CVA9 infection (cell viability),[2]; [27],rescued the cells
same,concentration of maximal inhibition of CVA9 infection,[2],5 µM
same,effect on CVB3 infection (cell viability),[3]; [27],rescued the cells
same,concentration of maximal inhibition of CVB3 infection,[3],5 µM
same,effect on infection by CVB serotypes 1 to 6 (cell viability),[4],inhibited
same,effect on CVB4 infection of Min-6 cells (cell viability),[5],efficiently rescued
same,effect on polio-3 infection (cell viability),[6],efficiently rescued
same,levels of infectious CVB4 in heart tissue,[7],significantly decreased
same,levels of infectious CVB4 in pancreas tissue,[7],significantly decreased
same,effects on BRAF in the transcriptomics study,[8],no effects
same,effect on EV1-induced up- or downregulation of mRNAs,"[8]; A549 cells, 6 h pi, Illumina Human HT-12 v4",attenuated almost all the effects of the virus
same,presence of viral RNA in persistently infected Panc-1 cells,"[9]; qPCR at day 7, 9, 14 and 21",totally eradicated
same,level of infectious viral particles (capsid) in persistently infected Panc-1 cells,[9]; supernatant titers on HEp-2 cells,totally eradicated
same,effect on HPEV1 infection (VP1 positive cells),[10],not effective
same,effect on SFV infection (GFP infection percentage),[11],not effective
same,effect on VSV infection (GFP infection percentage),[12],not effective
same,effect on RSV infection (GFP infection percentage),[13],not effective
same,time of administration at which efficacy is lost,[14],≥ 3 h p.i.
same,"effect on EV1 replication (replication intermediate, dsRNA)",[15],prevented
same,effect on EV1 IRES-based translation (mCherry fluorescence),[16],does not have direct effects
same,effect on HPEV1 IRES-based translation (mCherry fluorescence),[17],does not have direct effects
same,effect on viral protease 2A action (PABP),[18],does not have direct effects
same,effect on viral protease 3C action (G3BP1),[19],does not have direct effects
same,effect on CVB3 3D polymerase action,[20],"does not prevent its action, nor binding or elongation of the nascent RNA chain"
same,efficacy against influenza A(H1N1)pdm09 infection compared with oseltamivir,[21],greater efficacy than oseltamivir
same,effect on adenovirus 5 transduction (GFP positive cells),[22],not effective
same,effect on HRVB14 replication (dsRNA J2 intensity),[23],decreases the replication
same,effect on infection after transfection of genomic RNA of EV1,[24],totally prevented infection
same,direct virucidal effect on EV1 particle (genome release),[25],does not have direct virucidal effects
same,effect on uncoating of EV1 inside endosomes,[26],does not affect the uncoating

# — US12599591B2, “Vemurafenib and salts thereof for use in the treatment of enteroviral infections” (Jyväskylän yliopisto, priority 2018, dated 2026)
